How the values were obtained:
plants = conditions: cited from earlier work
mosquitoes = test: Mosquito mortality with insecticide-sprayed water-filled containers in a closed area; assay type: in vivo; conditions: containers double sprayed, after about 4 weeks
Method: The biodegradable containers also successfully functioned as a mosquito trap. For example, containers were double sprayed with lambda-cyalothrin, filled with water and placed in a closed area with a known number of mosquitoes. After about 4 weeks, mosquito mortality was measured by counting the number of live mosquitoes compared to the dead mosquitoes. 100% mosquito mortality was achieved.

SMILES | incompatibility on cultivated plants (plants) | phytotoxicity to most plants (plants; when used as directed) | mosquito mortality (mosquitoes)
CC1(C)C(C=C(Cl)Cl)C1C(=O)OCc1cccc(Oc2ccccc2)c1 (stereo not drawn) [permethrin] | No incompatibility has been observed | not phytotoxic | –
CC1(C)[C@H](C(=O)O[C@H](C#N)c2cccc(Oc3ccccc3)c2)[C@@H]1/C=C(\Cl)C(F)(F)F [lambda-cyalothrin] | – | – | 100%
